Source: US20100303758A1, “Novel Glucocorticoid Receptor Agonists” (priority 2009, published 2010)

How the values were obtained:
Format in all cases: cell-based
[1] = test system: tumour necrosis factor-α (TNF-α) release from lipopolysaccharide (LPS) stimulated isolated human peripheral mononuclear cells (PBMC); assay: Inhibition of TNF-α release from LPS stimulated isolated human PBMC; settings: LPS stimulated human PBMC; 1 h pre-incubation, 18 hours after LPS; TNF-α by ELISA
Outline: (§1)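 Human PBMC from EDTA blood of healthy donors, at 1×10^6 lymphocytes/ml in HBSS/HEPES/BSA buffer, were preincubated with compound (1% DMSO final) for 1 h at 37° C, then stimulated with LPS (added as 100 ng/ml solution) for 18 hours. Supernatant TNF-α was measured by ELISA, and IC50 was derived from dose-response curves.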

[2] = target: T1, human GR (Homo sapiens, UniProt P04150); assay: GR agonist potency, MMTV-luciferase reporter in SW1353 cells; settings: human chondrosarcoma cell-line SW1353 stably transfected with MMTV-luciferase reporter; approx. 18 hours; data as percentage of 1 μM dexamethasone positive control
T1 construct: SW1353 naturally expresses human GR; endogenous in cells; host or cells: human chondrosarcoma cell-line SW1353 stably transfected with an MMTV-luciferase reporter construct
T1 sequence (P04150 1-777): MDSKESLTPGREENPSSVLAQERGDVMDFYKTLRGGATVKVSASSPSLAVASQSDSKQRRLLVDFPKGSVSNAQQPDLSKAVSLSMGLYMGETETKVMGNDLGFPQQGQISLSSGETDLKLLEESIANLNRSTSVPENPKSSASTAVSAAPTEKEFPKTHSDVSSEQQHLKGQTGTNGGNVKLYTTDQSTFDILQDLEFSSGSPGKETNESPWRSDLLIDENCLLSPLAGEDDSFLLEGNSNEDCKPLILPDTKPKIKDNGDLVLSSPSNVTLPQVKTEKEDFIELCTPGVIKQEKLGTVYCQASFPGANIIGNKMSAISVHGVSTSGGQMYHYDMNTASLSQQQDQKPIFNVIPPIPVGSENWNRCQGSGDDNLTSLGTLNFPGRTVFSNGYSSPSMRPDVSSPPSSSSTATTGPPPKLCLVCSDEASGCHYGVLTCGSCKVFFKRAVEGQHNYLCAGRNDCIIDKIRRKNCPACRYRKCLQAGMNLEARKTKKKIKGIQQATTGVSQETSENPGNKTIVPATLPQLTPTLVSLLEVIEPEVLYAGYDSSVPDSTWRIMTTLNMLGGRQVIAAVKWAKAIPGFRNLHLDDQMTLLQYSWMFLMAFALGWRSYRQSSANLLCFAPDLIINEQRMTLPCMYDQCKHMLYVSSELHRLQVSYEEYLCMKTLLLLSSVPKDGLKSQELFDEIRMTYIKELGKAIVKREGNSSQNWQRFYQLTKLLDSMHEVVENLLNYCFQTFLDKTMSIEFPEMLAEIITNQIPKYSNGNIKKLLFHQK
Outline: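 SW1353 chondrosarcoma cells stably carrying MMTV-luciferase, endogenous GR, exposed to compound ~18 h at 37 °C. Luminescence expressed as percent of 1 μM dexamethasone response; EC50 estimated from dose-response curves.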

[3] = Inhibition of TNF-α release from LPS stimulated isolated human PBMC; settings: Homo sapiens, PBMC, read-out: IC50 (nM) for inhibition of TNF-α release
Outline: as §1

Row | Structure (SMILES) | IC50 [1] | EC50 [2] | IC50 [3]
1 | CC12C=CC(=O)C=C1CCC1C3CCC(OC(=O)c4ccc(Cc5ccccc5)cc4)(C(=O)OCC#N)C3(C)CC(O)C12F (stereo not drawn) [Example 9] | 0.21 nM |  | 
2 | CC12C=CC(=O)C=C1CCC1C3CCC(OC(=O)c4ccc(Sc5ccc(O)cc5)cc4)(C(=O)OCC#N)C3(C)CC(O)C12F (stereo not drawn) [Example 18, cyanomethyl (11beta,17alpha)-9-fluoro-11-hydroxy-17-({4-[(4-hydroxyphenyl)thio]benzoyl}oxy)-3-oxoandrosta-1,4-d iene-17-carboxylate] | 0.138 nM | 34.9 nM | 
3 | CC12C=CC(=O)C=C1CCC1C3CCC(OC(=O)c4ccc(Oc5ccc(Cl)c(O)c5)cc4)(C(=O)OCC#N)C3(C)CC(O)C12F (stereo not drawn) [Example 34, cyanomethyl (11beta,17alpha)-17-{[4-(4-chloro-3-hydroxyphenoxy)-benzoyl]oxy}-9-fluoro-11-hydroxy-oxoandrosta-1,4-diene-17-carboxylate] | 0.278 nM | 100 nM | 
4 | C[C@@H]1C[C@H]2[C@@H]3CCC4=CC(=O)C=C[C@]4(C)[C@@]3(F)[C@@H](O)C[C@]2(C)[C@@]1(OC(=O)c1ccc(Oc2ccc(O)c(Cl)c2)cc1)C(=O)SCF [Example 43, (11beta,16alpha,17alpha)-9-fluoro-17-{[(fluoromethyl)thio]carbonyl}-11-hydroxy-16-methyl-3-oxoandrosta-1,4-dien-17-yl 4-(3-chloro-4-hydroxyphenoxy)benzoate] |  | 26.4 nM | 0.06 nM
5 | C[C@@H]1C[C@H]2[C@@H]3C[C@H](F)C4=CC(=O)C=C[C@]4(C)[C@@]3(F)[C@@H](O)C[C@]2(C)[C@@]1(OC(=O)c1ccc(Oc2ccc(O)c(Cl)c2)cc1)C(=O)OCF [Example 44, Fluoromethyl (6alpha,11beta,16alpha,17alpha)-17-{[4-(3-chloro-4-hydroxyphenoxy)benzoyl]oxy}-6,9-difluoro-11-hydroxy-16-methyl-3-oxoandrosta-1,4-diene-17-carboxylate] |  | 6.7 nM | 0.029 nM
6 | C[C@@H]1C[C@H]2[C@@H]3C[C@H](F)C4=CC(=O)C=C[C@]4(C)[C@@]3(F)[C@@H](O)C[C@]2(C)[C@@]1(OC(=O)c1ccc(Oc2ccc(O)c(Cl)c2)cc1)C(=O)OCC#N [Example 45, cyanomethyl(6alpha,11beta,16alpha,17alpha)-17-{[4-(3-chloro-4-hydroxyphenoxy)benzoyl]oxy}-6,9-difluoro-11-hydroxy-16-methyl-3-oxoandrosta-1,4-diene-17-carboxylate] |  | 21.3 nM | 0.155 nM
7 | CSc1ccc(Sc2ccc(C(=O)O[C@]3(C(=O)OCC#N)[C@H](C)C[C@H]4[C@@H]5C[C@H](F)C6=CC(=O)C=C[C@]6(C)[C@@]5(F)[C@@H](O)C[C@@]43C)cc2)cc1 [Example 46, Cyanomethyl (6alpha,11beta,16alpha,17alpha)-6,9-difluoro-11-hydroxy-16-methyl-17-[(4-{[4-(methylthio)phenyl]thio}benzoyl)oxy]-3-oxoandrosta-1,4-diene-17-carboxylate] |  | 44.3 nM | 0.372 nM
8 | CSc1cccc(Oc2ccc(C(=O)O[C@]3(C(=O)OCC#N)[C@H](C)C[C@H]4[C@@H]5C[C@H](F)C6=CC(=O)C=C[C@]6(C)[C@@]5(F)[C@@H](O)C[C@@]43C)cc2)c1 [Example 47, Cyanomethyl (6alpha,11beta,16alpha, 17alpha)-6,9-difluoro-11-hydroxy-16-methyl-17-({4-[3-(methylthio)phenoxy]benzoyl}oxy)-3-oxoandrosta-1,4-diene-17-carboxylate] |  | 25.2 nM | 0.731 nM
9 | CSc1ccc(Oc2ccc(C(=O)O[C@]3(C(=O)OCC#N)[C@H](C)C[C@H]4[C@@H]5C[C@H](F)C6=CC(=O)C=C[C@]6(C)[C@@]5(F)[C@@H](O)C[C@@]43C)cc2)cc1 [Example 48, Cyanomethyl (6alpha,11beta,16alpha, 17alpha)-6,9-difluoro-11-hydroxy-16-methyl-17-({4-[4-(methylthio)phenoxy]benzoyl}oxy)-3-oxoandrosta-1,4-diene-17-carboxylate] |  | 14.2 nM | 0.09 nM
10 | CSc1cccc(Sc2ccc(C(=O)O[C@]3(C(=O)OCC#N)[C@H](C)C[C@H]4[C@@H]5C[C@H](F)C6=CC(=O)C=C[C@]6(C)[C@@]5(F)[C@@H](O)C[C@@]43C)cc2)c1 [Example 49, Cyanomethyl (6alpha,11beta,16alpha, 17alpha)-6,9-difluoro-11-hydroxy-16-methyl-17-[(4-{[3-(methylthio)phenyl]thio}benzoyl)oxy]-3-oxoandrosta-1,4-diene-17-carboxylate] |  | 90.8 nM | 0.738 nM
11 | CSc1ccc(Sc2ccc(C(=O)O[C@]3(C(=O)OCF)[C@H](C)C[C@H]4[C@@H]5C[C@H](F)C6=CC(=O)C=C[C@]6(C)[C@@]5(F)[C@@H](O)C[C@@]43C)cc2)cc1 [Example 50, Fluoromethyl (6alpha,11beta,16alpha, 17alpha)-6,9-difluoro-11-hydroxy-16-methyl-17-[(4-{[4-(methylthio)phenyl]thio}benzoyl)oxy]-3-oxoandrosta-1,4-diene-17-carboxylate] |  | 11.5 nM | 0.052 nM
12 | CSc1cccc(Oc2ccc(C(=O)O[C@]3(C(=O)OCF)[C@H](C)C[C@H]4[C@@H]5C[C@H](F)C6=CC(=O)C=C[C@]6(C)[C@@]5(F)[C@@H](O)C[C@@]43C)cc2)c1 [Example 51, Fluoromethyl (6alpha,11beta,16alpha, 17alpha)-6,9-difluoro-11-hydroxy-16-methyl-17-({4-[3-(methylthio)phenoxy]benzoyl}oxy)-3-oxoandrosta-1,4-diene-17-carboxylate] |  | 8.7 nM | 0.057 nM
13 | CSc1ccc(Oc2ccc(C(=O)OC3(C(=O)OCF)C(C)CC4C5CC(F)C6=CC(=O)C=CC6(C)C5(F)C(O)CC43C)cc2)cc1 (stereo not drawn) [Example 52, Fluoromethyl (6alpha,11beta,16alpha, 17alpha)-6,9-difluoro-11-hydroxy-16-methyl-17-({4-[4-(methylthio)phenoxy]benzoyl}oxy)-3-oxoandrosta-1,4-diene-17-carboxylate] | 0.033 nM | 6.05 nM | 
14 | CSc1cccc(Sc2ccc(C(=O)O[C@]3(C(=O)OCF)[C@H](C)C[C@H]4[C@@H]5C[C@H](F)C6=CC(=O)C=C[C@]6(C)[C@@]5(F)[C@@H](O)C[C@@]43C)cc2)c1 [Example 53] |  | 11.8 nM | 0.086 nM
